Test results from patent US20240379187A1, “SYSTEMS AND METHODS FOR OMICS-BASED ANALYSIS OF GENE EXPRESSION” (priority 2023, published 2024).

Tests used:
C. difficile [1] = assay: CAT-GxD re-analysis of public C. difficile gene expression datasets (heatmap, PCA, STRING network, KEGG PTS pathway overlay) after DCA or succinate exposure; format: cell-based, Clostridioides difficile; details: for most of the Glc family phosphorylation and L-ascorbate phosphorylation (KEGG PTS pathway): unchanged in Δsig54
Source text: Typically, specific gene expression datasets and protein quantitation datasets for the selected target organism are collected and made available. In an exemplary form, C. difficile-specific gene expression datasets and protein quantitation datasets were collected from GEO database and ProteomeXchange databases, respectively. An SQL database was generated using RSQlite (version 2.3.4) (25) to incorporate the 56 nonredundant GEO transcriptomics datasets and 8 quantitative proteomic datasets. GEO subseries datasets already available in their respective superseries dataset were excluded. Quantitative total proteomic datasets were included; those focused on post-translational modification studies were excluded. To integrate and normalize the datasets, gene IDs were matched to the Ensembl stable IDs of the widely accepted C. difficile 630 reference strain using BLASTp, using protein identity and gene position comparisons and given the NCBI format CD630. Pre-computed log2 ratios without any gene duplication were imported as is. Studies with replicate log2 ratios assigned for a gene ID (common in microarray experiments due to replicate spots) were solved by computing the median log2 ratio. Two-channel microarray experiments with duplicate ratios assigned to a gene were solved by computing the average of the complementary ratios then log2 transformed. Reads Per Kilobase Million (RPKM) of raw RNASeq data were computed. For datasets without any computed ratios, log2 ratios were calculated for each treatment vs. control, and median normalization was performed. Gene classifications (described in Input and Data Filtering) were compiled to provide a comprehensive and robust search.
To glean additional insight into the interactions between the remaining 26 genes, the analysis was transitioned to the STRING database by clicking on the STRING icon at the top left of the page (expression information, however, will not ‘carry over’). […] The least number of nodes with the higher network association scores were selected to bridge the clusters. […] Next, the 5 bridging nodes and rpoN/sigL/sig54 were added to the 26 gene set and re-entered in the CAT-GXD's ‘Search’ bar. […] In order to link the separate networks, the 26 genes were sent to the STRING database by clicking on the STRING icon.
In the pathway tab in CAT-GxD, gene expression data for specific conditions can be overlaid on selected KEGG pathways.

C. difficile [2] = details: cited from earlier work
C. difficile [3] = details: cited from earlier work; remark: listed apart in the source
[4] = C. difficile exposed to 240 μM DCA for 48 hours
[5] = DCA exposure, compared with succinate exposure
[6] = C. difficile exposed to 80 mM succinate for 24 hours
[7] = C. difficile treated with 80 mM succinate for 24 hours

C[C@H](CCC(=O)O)[C@H]1CC[C@H]2[C@@H]3CC[C@@H]4C[C@H](O)CC[C@]4(C)[C@H]3C[C@H](O)[C@]12C [DCA]
SigL/Sig54/RpoN expression (C. difficile [1]; [4]): downregulated
expression of central bridging node pheA (C. difficile [1]; [4]): upregulated
genes of cluster [2] downregulated (C. difficile [1]; [4]): 3 of 10
number of the 27 Δsig54 downregulated genes also downregulated (C. difficile [1]; [4]): 19 of the 27
bridging nodes downregulated (C. difficile [1]; C. difficile exposed to 240 μM DCA for 48 hours, bridging nodes ptsH, pheA, pfo, CD3092, CD3640): 4 of the 5
expression of cluster [2] bridging node ptsH (C. difficile [1]; DCA exposure (240 μM, 48 hours)): downregulated
mannitol (mtlF) phosphorylation (KEGG PTS pathway) (C. difficile [1]; [5]): increased
sorbitol phosphorylation (KEGG PTS pathway) (C. difficile [1]; [5]): decreased
most of the Glc family phosphorylation and L-ascorbate phosphorylation (KEGG PTS pathway) (C. difficile [1]; DCA ratio (240 μM, 48 hrs)): downregulated
biofilm formation in C. difficile (C. difficile [2]): induce biofilm formation

O=C(O)CCC(=O)O [succinate]
expression of bridging node pfo of clusters [1] and [3] (C. difficile [1]; [6]): upregulated
expression of central bridging node pheA (C. difficile [1]; [6]): upregulated
expression of cluster [2] bridging node ptsH (C. difficile [1]; [6]): downregulated
SigL expression (C. difficile [1]; [7]): upregulation
genes (clusters [1] and [3]) displaying contrasting expression patterns relative to Δsig54 (C. difficile [1]; [7]): 13 of 27
genes (of the 10 of cluster [2]) with similar downregulation patterns as with Sig54 loss (C. difficile [1]; [7]): 7 of the 10
cellobiose, fructoselysine and sorbitol phosphorylation (KEGG PTS pathway) (C. difficile [1]; succinate exposure, compared with DCA exposure): increased
most of the Glc family phosphorylation and L-ascorbate phosphorylation (KEGG PTS pathway) (C. difficile [1]; succinate ratio (24 hrs biofilm)): downregulated
biofilm formation in C. difficile (C. difficile [2]): induce biofilm formation
biofilm thickness compared with DCA-induced biofilm (C. difficile [2]; succinate versus DCA): significantly thicker biofilm
mtlF expression in succinate induced biofilms (C. difficile [3]): downregulation
